Measured values published in article PMC12454493, “Insight on novel sulfamoylphenyl pyrazole derivatives as anticancer carbonic anhydrase inhibitors” (Molecular Diversity, 2024).
Where two headings read alike, the source gives them in different places.

System: MCF-7 breast cancer cell line
Assay: In vitro cytotoxicity, MTT assay
Details: Homo sapiens
Experimental: In vitro cytotoxic activity:
Firstly, cultures were delivered into sterile area then each vial was supplied with 3 mL of medium or balanced salt solution free from phenol red and serum. Cultures were subjected to incubation foe 2-4 g. After the incubation period, MTT solubilization solution was added to remove the produced formazan crystals. Spectrophotometric measurement of absorbance was carried out at 690 nm for the background which then subtracted from absorbance measured at 570 nm. Five different drug concentrations were used 100, 25, 6.3, 1.6 and 0.4 nM and measured in triplicate.
Cell cycle analysis and Apoptotic assay
was determined using Annexin V-FITC Apoptosis Detection Kit (Bio Vision) according to the manufacturer’s procedures. Briefly, cell lines were cultured and incubated with each of the tested compounds for 48 h. Then, the cells were collected by centrifugation and resuspended in 500 μl of 1X binding buffer. 5 μl of Annexin V-FITC was added and 5 μl of propidium iodide (PI 50 mg/ml, optional.). The cells were incubated at room temperature for
Em = 530 nm) using FITC signal detector and PI staining was analyzed by the phycoerythrin emission signal detector.
Apoptotic assay: cell lines were cultured and incubated with each of the tested compounds for 48 h.
Then, the cells were collected by centrifugation and resuspended in 500 μl of 1X binding buffer. 5 μl of Annexin V-FITC was added and 5 μl of propidium iodide (PI 50 mg/ml, optional.). the cells were incubated at room temperature for 5 min in the dark.
signal detector and PI staining was analyzed by the phycoerythrin emission signal detector.

COc1cccc2c1C(=O)c1c(O)c3c(c(O)c1C2=O)C[C@@](O)(C(=O)CO)C[C@@H]3O[C@H]1C[C@H](N)[C@H](O)[C@H](C)O1 [Doxorubicin, doxorubicin, reference compound]
IC50 (MCF7, read-out: IC50 (µM) ± SD cytotoxic activity, MCF-7, MTT, normal conditions): 11.6 ± 0.46 µM | IC50 (MCF7, read-out: IC50 (µM) ± SD cytotoxic activity, MCF-7, MTT, under hypoxia): 2.72 ± 0.11 µM
